Test results: US11891634B2, “PDE5A destabilizing domains” (The Board of Trustees of the Leland Stanford Junior …, priority 2017, dated 2024)

Key:
[1] = test system: NIH3T3 cells expressing AcGFP-PDE5A fusions; assay: FACS analysis of C-terminal PDE5A mutants (AcGFP-PDE5A fusions), Sildenafil vs vehicle; format: cell-based, mouse; details: for Mean Fluorescence intensity: NIH3T3; for Stabilization ratio: Table 4, Sildenafil 10 μM vs vehicle alone
Procedure: The NIH3T3 cell line was cultured in DMEM supplemented with 10% heat-inactivated donor bovine serum (Invitrogen), 2 mM glutamine, 100 U/ml penicillin and 100 μg/ml streptomycin.
The ΦNX ecotropic packaging cell line was transfected using standard Lipofectamine 2000 protocols. Viral supernatants were harvested 48 hours, post transfection, filtered and concentrated 10-fold using Amicon Ultra centrifugal filter device with a 100kDa cutoff. NIH 3T3 cells were incubated with concentrated retroviral supernatants supplemented with 4 μg/ml polybrene for 4 hours at 37° C. Cells were washed once with PBS and cultured in growth media for 24-36 hours to allow for viral integration.
The transduced NIH3T3 cells were subjected to analysis using fluorescence-activated cell sorting (FACS) to screen the libraries of PDE5A mutants. 24 hours prior to analysis, transduced NIH3T3 cells were plated at 1×10^5 cells per well of a 12-well plate. Cells were removed from the plate using PBS and 2 mM EDTA, washed once with PBS, and resuspended in 200 μL, PBS. FACS analysis was performed on instruments at the Stanford Shared FACS Facility with 10,000 events represented.
To identify destabilizing domains that are responsive to the PDE5A ligand, Sildenafil, a cell-based screening assay was employed in which the fluorescence of green fluorescent protein derived from Aequorea coerulescens (AcGFP) served as an indicator of PDE5A stability. A library based on the PDE5A catalytic domain sequences was generated using error prone PCR and then cloned in-frame in front of AcGFP. A Moloney murine leukemia retroviral expression was used to stably integrate this library of PDE5A-AcGFP fusions into NIH-3T3 fibroblasts, and the transduced cells were subjected to three rounds of sorting using flow cytometry. In the first round, cells were treated with 10 μM of PDE5A ligand, Sildenafil for 16-24 before analysis. Fluorescent cells were collected and further cultured in the absence of ligand for 60 hours.
A library of AcGFP-PDE5A fusions i.e., C-terminal PDE5A mutants was screened using the cell-based screening assay described previously to identify C-terminal destabilizing domains. […] Identified candidates were subjected to further characterization by FACS. Cells were split into two treatment groups and incubated with either Sildenafil (10 μM) or vehicle alone for 24 hours. Cells that were mock transduced or transduced with the wild-type PDE5A construct were also included in the analysis. The stabilization ratio was calculated as the fold change in GFP intensity of the AcGFP-PDE5A construct in Sildenafil treated sample compared to vehicle alone treated sample. The results are presented in Table 2 where the C terminal PDE5A mutants are denoted as PDE5AC.
Residue D764 was identified as a mutational hotspot from sequence analysis. PDE5AC (#41) was engineered with either D764N or D764G mutation via site-directed mutagenesis. PDE5AC (#41) +D764N comprises the amino acid sequence of SEQ ID NO. 53 (encoded by SEQ ID NO. 54) and PDE5AC (#41) +D764G comprises the amino acid sequence of SEQ ID NO. 55 (encoded by SEQ ID NO. 56). AcGFP-PDE5A variants were evaluated for Sildenafil dependent stabilization via FACS as described previously. Results from FACS analysis are presented in Table 4 where the C terminal PDE5A mutants are denoted as PDE5AC. The stabilization ratio was calculated as the fold change in GFP intensity of the AcGFP-PDE5A construct in Sildenafil treated sample compared to vehicle alone treated sample.
Extended versions of human PDE5A that included residues in addition to catalytic domain (residues 535-860 of SEQ ID NO. 1) with Q589R polymorphism (SEQ ID NO. 11) were evaluated for use as C-terminal destabilizing domains. Three extended PDE5A sequences were tested that consisted of residues 535-875 of SEQ ID NO. 1 with Q589R polymorphism (SEQ ID NO. 13); residues 466-875 of SEQ ID NO. 1 with Q589R polymorphism (SEQ ID NO. 15); or residues 420-875 of SEQ ID NO. […]

[2] = test system: NIH3T3 cells expressing AcGFP-PDE5A fusions; assay: Immunoblot analysis of AcGFP-PDE5A fusions (anti-XFP / anti-HA); format: cell-based, mouse; details: 10 μM Sildenafil or vehicle alone, 24 hours
Procedure: Identified PDE5A mutants were further validated using immunoblot analysis. NIH3T3 cells expressing AcGFP-PDE5A fusions were incubated with 10 μM Sildenafil or vehicle alone for 24 hours and the stability of PDE5A mutants was evaluated at the protein level. Cell lysates obtained from transduced NIH3T3 cells were immunoblotted using the anti-XFP antibody (1:3000) at 4° C. overnight. Samples were also immunoblotted with anti-GAPDH antibody (1:10000) to ensure uniform protein loading. Samples were then incubated with secondary anti-mouse antibody (1:3000) at room temperature for 1 hour, followed by visualization using appropriate methods. […] The difference in band intensity recapitulates the pattern from the FACS analysis.
A hemagglutinin (HA) sequence (SEQ ID NO. 74; encoded by SEQ ID NO. 75) was cloned in-frame at either the 5′- or 3′-ends of the PDE5A mutant sequence from PDE5AC (#41). The construct further included AcGFP (amino acids 1-239 of WT) at the N terminus (SEQ ID NO. 76, encoded by SEQ ID NO. 77) and an EF linker/EcoRI restriction site (GAATTC). […] The effect of the HA sequence on ligand dependent stabilization was evaluated via immunoblot analysis. […] As show in FIG. 3, HA-tagged fusion protein expression detected with either anti-XFP antibody or anti-HA antibody was nearly identical. […]

[3] = test system: NIH3T3 cells expressing AcGFP-PDE5A variants; assay: Sildenafil dose dependency (FACS, percentage of max MFI); format: cell-based, mouse; details: Sildenafil 0.003 μM to 30 μM, read-out: half maximal effective concentration or EC50
Procedure: NIH3T3 cells expressing AcGFP-PDE5A variants were incubated with varying concentrations of Sildenafil ranging from 0.003 μM to 30 μM. The stability of PDE5A mutants was measured using FACS and mean fluorescence intensity (MFI) of GFP was calculated. […] Percentage of max MFI (%) was calculated as the ratio of the MFI at a ligand concentration compared to the maximum MFI. Percentage of max MFI was plotted against the concentration of Sildenafil presented in a log scale. Titration curves of PDE5AC (#2) and PDE5AC (#41) are presented in FIG. 4A and FIG. 4B, respectively. […] The half maximal effective concentration or EC50 was approximately 0.5 μM for PDE5AC (#2) and 2 μM for PDE5AC (#41).

AcGFP = assay: Comparison of N-terminal and C-terminal PDE5A derived DD (FACS); format: cell-based, human; details: 24 hours
Procedure: The ability of PDE5A derived DDs to destabilize a protein of interest may depend on the position whether the DD is appended to the N terminus or the C terminus of the protein of interest. Mutant #2, and mutant #41 were appended either to the N terminus or C terminus of AcGFP and analyzed using the cell-based screening assay described previously to identify destabilizing domains. Cells were split into two treatment groups and incubated with either Sildenafil (10 μM) or vehicle alone for 24 hours. Cells that were mock transduced or transduced with the N terminal fused wild-type PDE5A or PDE5AN (#40) constructs were also included in the analysis. The results are presented in Table 8 where the C terminal PDE5A mutants are denoted as PDE5AC and N terminal PDE5A mutants are denoted as PDE5AN.
The stabilization ratio was calculated as the fold change in GFP intensity of the AcGFP-PDE5A construct in Sildenafil treated sample compared to vehicle alone treated sample.

[4] = Table 2, Sildenafil (10 μM) +, 24 hours
[5] = Table 2, Sildenafil (10 μM) −, vehicle alone, 24 hours
[6] = Table 4 (D764 mutations), Sildenafil (10 μM) +
[7] = Table 4 (D764 mutations), Sildenafil (10 μM) −

Row | Substance | Mean Fluorescence intensity [1, 4] | Mean Fluorescence intensity [1, 5] | Mean Fluorescence intensity [1, 6] | Mean Fluorescence intensity [1, 7] | Stabilization ratio [1] | Fusion protein expression / ligand dependent stabilization by immunoblot [2] | EC50 [3] | Mean FITC-A DMSO (AcGFP) | Mean FITC-A Sildenafil (10 μM) (AcGFP)
1 | PDE5AC (#41): AcGFP fused to C-terminal DD 535-860 of PDE5A (F561L, Q589R, K604E, D724N, L797F), SEQ ID NO. 27 | 6115 | 1000 | 4647 | 734 | 6.3 | most drastic difference in the intensity of the bands | ~2000 nM | 1443 | 4620
2 | PDE5AC (#2): AcGFP fused to C-terminal DD 535-860 of PDE5A (Q589R, D687A, D764N, S815C), SEQ ID NO. 23 | 6577 | 1023 | 3483 | 671 | 5.2 | most drastic difference in the intensity of the bands | ~500 nM | 1342 | 5030
